Measurements reported in BindingDB's records for patent US20230382889 (Volastra Therapeutics, 2023).

Biological target: T1, Kinesin-like protein KIF18A (Homo sapiens, UniProt Q8NI77)
T1 sequence (Q8NI77 whole entry): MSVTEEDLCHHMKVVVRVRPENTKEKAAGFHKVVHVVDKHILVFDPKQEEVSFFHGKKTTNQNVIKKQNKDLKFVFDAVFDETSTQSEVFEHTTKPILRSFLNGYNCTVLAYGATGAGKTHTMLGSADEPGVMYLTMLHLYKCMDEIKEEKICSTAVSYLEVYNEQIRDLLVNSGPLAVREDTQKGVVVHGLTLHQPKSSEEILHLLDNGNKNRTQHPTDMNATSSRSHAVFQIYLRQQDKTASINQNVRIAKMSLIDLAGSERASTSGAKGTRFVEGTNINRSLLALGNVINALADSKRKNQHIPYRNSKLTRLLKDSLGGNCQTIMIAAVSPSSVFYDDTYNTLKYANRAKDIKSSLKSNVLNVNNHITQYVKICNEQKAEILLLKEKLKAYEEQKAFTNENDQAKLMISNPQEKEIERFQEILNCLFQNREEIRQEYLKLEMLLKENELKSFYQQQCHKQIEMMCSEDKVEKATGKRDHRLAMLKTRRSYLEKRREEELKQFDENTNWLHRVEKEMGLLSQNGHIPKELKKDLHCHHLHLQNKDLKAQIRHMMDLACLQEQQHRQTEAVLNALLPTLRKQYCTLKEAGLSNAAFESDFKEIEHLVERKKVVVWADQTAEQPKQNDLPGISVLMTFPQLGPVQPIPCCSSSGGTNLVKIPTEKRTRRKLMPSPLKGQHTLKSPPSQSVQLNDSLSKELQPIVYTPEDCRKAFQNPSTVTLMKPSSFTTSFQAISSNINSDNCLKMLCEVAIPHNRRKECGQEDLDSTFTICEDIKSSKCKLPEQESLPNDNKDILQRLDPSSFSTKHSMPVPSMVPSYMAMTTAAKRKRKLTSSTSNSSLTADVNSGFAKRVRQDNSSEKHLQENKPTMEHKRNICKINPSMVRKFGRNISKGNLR
Assay: Inhibition of KIF18A Microtubule-Dependent ATPase Activity
Experimental: IC50 values were calculated from concentration vs. % Inhibition data via a four-parameter variable slope model.

Q: How did the IC50 turn out when `O=S(=O)(CCO)Nc1cc(N2CCC3(CC2)CC3)c(-c2cn(-c3ccc(F)c(S(=O)(=O)N4CC(F)(F)C4)c3)nn2)cn1` [US20230382889, Compound 112] was run?
A: 77 nM
